Values quoted from earlier work, collected in patent publication US9345804B2, “S-nitrosothiol-generating skin dressings” (Insense Limited, priority 2007, dated 2016).

Experiments:
[1] = at 25° C.
[2] = under normal conditions

O=NO [nitrite]
pKa [1]: 3.4

nitrosoglycerol
time to almost complete decomposition [2]: hours/days
